{
  "source": "patent US6541514B2",
  "about": "“Process for the manufacture of 117Sn diethylenetriaminepentaacetic acids” (Brookhaven Science Associates, LLC, priority 2001, dated 2003)",
  "key": {"[1]": {"conditions": "in vivo; cited from earlier work"}, "[2]": {"conditions": "cited from earlier work; for relief of bone pain: humans"}, "[3]": {"conditions": "cited from earlier work; for myelosuppression / bone marrow toxicity: in vivo"}, "[4]": {"tested_on": "Chinese hamster V79 cells", "test": "Radiotoxicity in cultured mammalian cells (colony survival)", "format": "cell-based", "conditions": "14 h labeling, 72 h at 10.5° C.", "method": "The present study examines the radiotoxicity of composition of the invention when incorporated into cultured mammalian cells.\nThe cells were then resuspended in fresh culture medium and maintained at 10.5° C. on a rocker-roller for 72 h. Cells were then washed again, serially diluted, and seeded into culture dishes. After 1 week the colonies were stained and counted, the surviving fraction compared to unlabeled controls was determined."}},
  "note": "Where two headings read alike, the source gives them in different places.",
  "data": [
    {"molecule": "O=[32P](O)(O)O", "note": "[^32P orthophosphate]", "values": [
      {"measurement": "increase in uptake in bone around osseous metastases as compared to normal bone", "setting": "[1]", "result": "3- to 5 fold"},
      {"measurement": "duration of pain relief / response", "setting": "[2]; patients", "result": "two to four months"},
      {"measurement": "time to pain relief / clinical benefit after administration", "setting": "[2]; patients", "result": "within five to fourteen days"}
    ]},
    {"molecule": "O=P([O-])(O)CN(CCN(CP(=O)([O-])O)CP(=O)(O)O)CP(=O)([O-])O.[153Sm+3]", "note": "[^153Sm-EDTMP, ^153Sm ethylenediaminetetramethylenephosphonate (EDTMP) complex]", "values": [
      {"measurement": "duration of pain relief / response", "setting": "[2]; patients", "result": "four to forty weeks"},
      {"measurement": "time to pain relief / clinical benefit after administration", "setting": "[2]; patients", "result": "within two weeks"},
      {"measurement": "myelosuppression / bone marrow toxicity", "setting": "[3]", "result": "Reversible myelosuppression"}
    ]},
    {"molecule": "[89Sr+2].[Cl-].[Cl-]", "note": "[^89Sr, ^89SrCl2]", "values": [
      {"measurement": "biological half-life in normal bone", "setting": "[1]", "result": 14, "unit": "days"},
      {"measurement": "biological half-life in osteoblastic metastases", "setting": "[1]", "result": "exceeds 50 days"},
      {"measurement": "duration of pain relief / response", "setting": "[2]; patients", "result": "three to six months"},
      {"measurement": "patients with bone pain / symptom relief", "setting": "[2]; patients", "result": "60 to 80", "unit": "%"},
      {"measurement": "time to pain relief / clinical benefit after administration", "setting": "[2]; patients", "result": "two to four weeks after injection"},
      {"measurement": "decrease in platelet count", "setting": "[3]; four weeks after therapy", "result": 30, "unit": "%"}
    ]},
    {"molecule": "^117mSn (Sn^4+) diethylenetriaminepentaacetic acid (DTPA) [^117mSn(Sn^4+)DTPA]", "values": [
      {"measurement": "bone uptake and retention compared with 32P orthophosphate, 153Sm-EDTMP, 186Re-HEDP and 89SrCl2", "setting": "[1]", "result": "higher bone uptake and retention"},
      {"measurement": "cellular uptake required to achieve 37% survival", "setting": "[4]", "result": 0.95, "unit": "mBq/cell"},
      {"measurement": "relief of bone pain", "setting": "[2]", "result": "effective agent for palliation of pain caused by bone metastases"},
      {"measurement": "relief of bone pain", "setting": "[2]; listed as 117mSn (Sn^4+) DTPA", "result": "dose-dependent relief of bone pain"},
      {"measurement": "myelosuppression / bone marrow toxicity", "setting": "[3]", "result": "no substantial toxicity to marrow tissues"},
      {"measurement": "myelosuppression / bone marrow toxicity", "setting": "[3]; listed as 117mSn (Sn^4+) DTPA", "result": "None of the ^117mSn (Sn^4+) DTPA compositions used in WO 95/29706 exhibited bone marrow toxicity"}
    ]}
  ]
}
